Measurements published in patent US20250170112A1, “ADENOSINE LIGANDS FOR THE TREATMENT OF NEUROLOGICAL DISORDERS” (Lucy Therapeutics, Inc., priority 2022, published 2025).

Experiments:
human A2B = target: T1, human A2B (Homo sapiens, UniProt P29275); assay: cAMP HTRF assay for Gs coupled receptor, agonist test; assay type: cell-based; details: agonist activity; HEK293 cells expressing recombinant human A2B; read-out: A2BAR EC50
T1 construct: expressed in transfected cells; host or cells: HEK293
T1 sequence (P29275 1-332): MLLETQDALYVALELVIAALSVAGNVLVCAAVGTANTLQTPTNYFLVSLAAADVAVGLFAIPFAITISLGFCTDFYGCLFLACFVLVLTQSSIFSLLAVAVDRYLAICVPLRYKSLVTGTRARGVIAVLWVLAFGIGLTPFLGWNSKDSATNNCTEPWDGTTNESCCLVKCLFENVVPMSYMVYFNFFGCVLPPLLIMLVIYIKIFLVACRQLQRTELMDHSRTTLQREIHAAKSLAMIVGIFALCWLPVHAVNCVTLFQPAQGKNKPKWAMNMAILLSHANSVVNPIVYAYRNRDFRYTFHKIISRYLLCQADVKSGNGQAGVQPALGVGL
Outline: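 Recombinant cells were incubated 30 min at room temperature with increasing agonist concentrations. Lysis buffer with cAMP-d2 and anti-cAMP cryptate was added, with 1 h at room temperature before the HTRF fluorescence ratio was read. Reference compounds were run in parallel.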

[1] = target: T2, human Adenosine A1 receptor (Homo sapiens, UniProt P30542); assay: GTPγS scintillation proximity assay, agonist testing; assay type: biochemical; details: agonist activity; membrane extracts of CHO-K1 cells expressing recombinant human A1; read-out: A1AR EC50
T2 construct: host or cells: CHO-K1
T2 sequence (P30542 1-326): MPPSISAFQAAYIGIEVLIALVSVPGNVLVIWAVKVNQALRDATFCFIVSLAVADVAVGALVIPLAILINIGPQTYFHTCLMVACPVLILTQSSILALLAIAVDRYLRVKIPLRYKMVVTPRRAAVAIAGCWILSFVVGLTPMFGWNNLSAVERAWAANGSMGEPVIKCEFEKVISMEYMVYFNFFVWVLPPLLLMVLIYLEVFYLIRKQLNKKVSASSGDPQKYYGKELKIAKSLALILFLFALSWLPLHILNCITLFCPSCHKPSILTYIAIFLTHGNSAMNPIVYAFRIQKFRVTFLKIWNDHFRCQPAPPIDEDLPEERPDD
Outline: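 Agonist-stimulated [35S]GTPγS binding to membranes of CHO-K1 cells expressing recombinant human A1 receptor, in 20 mM HEPES pH 7.4, 100 mM NaCl, 10 μg/mL saponin, with receptor-optimized MgCl2 and GDP. GTPγ[35S] 0.1 nM final with WGA SPA beads; 1 h at room temperature, then scintillation counting.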

| EC50 (human A2B) [nM] | EC50 [1] [nM] | Compound |
| --- | --- | --- |
| > 10000 | 77 | COCCOc1ccc(-c2c(C#N)c(SCC3COC3)nc(N3CC(F)C3)c2C#N)cc1 [Compound 267] |
| 56.7 | 1.16 | N#Cc1c(SCc2cccnc2)nc(N2CC(O)C2)c(C#N)c1-c1ccc(OC2COC2)cc1 [Compound 268] |
| > 10000 | 615 | COCCOc1ccc(-c2c(C#N)c(SCC3COC3)nc(N3CC(F)(F)C3)c2C#N)cc1 [Compound 269] |
| > 10000 | 205 | COCCOc1ccc(-c2c(C#N)c(SCC3COC3)nc(N3CC(O)C3)c2C#N)cc1 [Compound 270] |
| 116 | 30.3 | N#Cc1c(SCc2cccnc2)nc(N2CC(F)C2)c(C#N)c1-c1ccc(OC2COC2)cc1 [Compound 271] |
| 311 | 22 | N#Cc1c(SCc2cccnc2)nc(N2CC(F)(F)C2)c(C#N)c1-c1ccc(OC2COC2)cc1 [Compound 272] |
| > 10000 | 295 | N#Cc1c(SCC2COC2)nc(N2CC(F)(F)C2)c(C#N)c1-c1ccc(OCCO)cc1 [Compound 273] |
| > 10000 | 75.2 | N#Cc1c(SCC2COC2)nc(N2CC(O)C2)c(C#N)c1-c1ccc(OCCO)cc1 [Compound 274] |
| > 10000 | 55.9 | N#Cc1c(SCC2COC2)nc(N2CC(F)C2)c(C#N)c1-c1ccc(OCCO)cc1 [Compound 275] |
| > 10000 | 98.8 | COCCOc1ccc(-c2c(C#N)c(SCc3cccnc3)nc(N3CC(F)(F)C3)c2C#N)cc1 [Compound 276] |
| > 10000 | 23.9 | COCCOc1ccc(-c2c(C#N)c(SCc3cccnc3)nc(N3CC(F)C3)c2C#N)cc1 [Compound 277] |
| > 10000 | 13.9 | COCCOc1ccc(-c2c(C#N)c(SCc3cccnc3)nc(N3CC(O)C3)c2C#N)cc1 [Compound 278] |
| > 10000 | 827 | COc1nc(SCC2COC2)c(C#N)c(-c2ccc(OCCO)cc2)c1C#N [Compound 281] |
| 20 | 61.5 | COc1nc(SCc2cccnc2)c(C#N)c(-c2ccc(OCCO)cc2)c1C#N [Compound 282] |
| > 10000 | > 10000 | COCCOc1ccc(-c2c(C#N)c(OC)nc(SCc3cccnc3)c2C#N)cc1 [Compound 283] |
| > 10000 | > 10000 | CNc1nc(SCc2cccnc2)c(C#N)c(-c2ccc(OCCOC)cc2)c1C#N [Compound 284] |
| > 10000 | 958 | CC(Sc1nc(N)c(C#N)c(-c2ccc(OC3COC3)cc2)c1C#N)C1COC1 (stereo not drawn) [Compound 285] |
| > 10000 | > 10000 | COCCOc1ccc(-c2c(C#N)c(SCc3cccnc3)nc(N(C)C)c2C#N)cc1 [Compound 286] |
| > 10000 | 807 | N#Cc1c(OCC2COC2)nc(N2CCC2)c(C#N)c1-c1ccc(OC2COC2)cc1 [Compound 287, 2-(azetidin-1-yl)-6-(oxetan-3-ylmethoxy)-4-(4-(oxetan-3-yloxy)phenyl)pyridine-3,5-dicarbonitrile] |
| > 10000 | 308 | CNc1nc(OCC2COC2)c(C#N)c(-c2ccc(OC3COC3)cc2)c1C#N [Compound 288] |
| > 10000 | > 10000 | N#Cc1c(N)nc(SCC2COC2)c(C#N)c1-c1ccc(OC(F)(F)COC(F)F)cc1 [Compound 289, 2-Amino-4-(4-(2-(difluoromethoxy)-1,1-difluoroethoxy)phenyl)-6-((oxetan-3-ylmethyl)thio)pyridine-3,5-dicarbonitrile] |

Continued, compound first:

| Compound | EC50 (human A2B) [nM] | EC50 [1] [nM] |
| --- | --- | --- |
| COCCOc1ccc(-c2c(C#N)c(N)nc(S[C@H](C)c3ccccn3)c2C#N)cc1 [Compound 243] | 6450 | > 10000 |
| COCCOc1ccc(-c2c(C#N)c(N)nc(S[C@@H](C)c3ccccn3)c2C#N)cc1 [Compound 244] | > 10000 | > 10000 |
| COCCOc1ccc(-c2c(C#N)c(Sc3cccnc3)nc(N3CC(F)C3)c2C#N)cc1 [Compound 245] | > 10000 | 2.05 |
| COCCOc1ccc(-c2c(C#N)c(N)nc(Sc3cccnc3)c2C#N)cc1 [Compound 246] | > 10000 | > 10000 |
| COCCOc1ccc(-c2c(C#N)c(N)nc(S[C@@H](C)c3cccnc3)c2C#N)cc1 [Compound 247] | > 10000 | 1.19 |
| COCCOc1ccc(-c2c(C#N)c(N)nc(S[C@H](C)c3cccnc3)c2C#N)cc1 [Compound 248] | > 10000 | 276 |
| COCCOc1ccc(-c2c(C#N)c(SCc3cncnc3)nc(N3CC(F)C3)c2C#N)cc1 [Compound 249] | > 10000 | > 10000 |
| COCCOc1ccc(-c2c(C#N)c(SCc3ccccn3)nc(N3CC(F)C3)c2C#N)cc1 [Compound 250] | > 10000 | 33.2 |
| COCCOc1ccc(-c2c(C#N)c(SCc3ncccn3)nc(N3CC(F)C3)c2C#N)cc1 [Compound 251] | > 10000 | > 10000 |
| COCCOc1ccc(-c2c(C#N)c(SCc3cnccn3)nc(N3CC(F)C3)c2C#N)cc1 [Compound 252] | > 10000 | > 10000 |
| CN(C)c1nc(SCc2cccnc2)c(C#N)c(-c2ccc(OCCOC(F)F)cc2)c1C#N [Compound 253] | > 10000 | > 10000 |
| CN(C)c1nc(SCc2cccnc2)c(C#N)c(-c2ccc(OC(F)(F)CO)cc2)c1C#N [Compound 254] | > 10000 | > 10000 |
| N#Cc1c(SCc2cccnc2)nc(N2CC(F)C2)c(C#N)c1-c1ccc(OC(F)(F)CO)cc1 [Compound 255] | 435 | > 10000 |
| N#Cc1c(SCc2cccnc2)nc(N2CC(F)(F)C2)c(C#N)c1-c1ccc(OC(F)(F)CO)cc1 [Compound 256] | > 10000 | > 10000 |
| N#Cc1c(SCc2cccnc2)nc(N2CCCC2)c(C#N)c1-c1ccc(OCCOC(F)F)cc1 [Compound 257] | > 10000 | > 10000 |
| CNc1nc(SCc2cccnc2)c(C#N)c(-c2ccc(OCCOC(F)F)cc2)c1C#N [Compound 258] | > 10000 | > 10000 |
| N#Cc1c(SCc2cccnc2)nc(N2CCC2)c(C#N)c1-c1ccc(OC(F)(F)CO)cc1 [Compound 259, 2-(Azetidin-1-yl)-4-(4-(1,1-difluoro-2-hydroxyethoxy)phenyl)-6-((pyridin-3-ylmethyl)thio)pyridine-3,5-dicarbonitrile] | 198 | > 10000 |
| CNc1nc(SCc2cccnc2)c(C#N)c(-c2ccc(OC(F)(F)CO)cc2)c1C#N [Compound 260] | 33.7 | 3.38 |
| N#Cc1c(SCc2cccnc2)nc(N2CC(O)C2)c(C#N)c1-c1ccc(OC(F)(F)CO)cc1 [Compound 261] | > 10000 | > 10000 |
| N#Cc1c(SCc2cccnc2)nc(N2CCC2)c(C#N)c1-c1ccc(OCCOC(F)F)cc1 [Compound 262] | > 10000 | > 10000 |
| N#Cc1c(SCc2cccnc2)nc(N2CCCC2)c(C#N)c1-c1ccc(OC(F)(F)CO)cc1 [Compound 263] | > 10000 | > 10000 |
| N#Cc1c(SCc2cccnc2)nc(N2CC(F)(F)C2)c(C#N)c1-c1ccc(OCCOC(F)F)cc1 [Compound 264] | > 10000 | > 10000 |
| N#Cc1c(SCc2cccnc2)nc(N2CC(O)C2)c(C#N)c1-c1ccc(OCCOC(F)F)cc1 [Compound 265] | > 10000 | 12.5 |
| N#Cc1c(SCc2cccnc2)nc(N2CC(F)C2)c(C#N)c1-c1ccc(OCCOC(F)F)cc1 [Compound 266] | > 10000 | 1070 |
